Data reported in patent US20170056373A1, “GHRELIN O-ACYLTRANSFERASE INHIBITORS” (SYRACUSE UNIVERSITY, priority 2015, published 2017).
Ends that are not written are not given here. * marks the point of attachment. acrylodan = CN(C)c1ccc2cc(C(=O)CC*)ccc2c1; Dansyl = CN(C)c1cccc2c(S(=O)(=O)*)cccc12

Experiments:
hGOAT [1] = biological target: T1, hGOAT (Homo sapiens, UniProt Q96T53); assay: fluorescent ghrelin peptide substrates assayed for activity with hGOAT (HPLC with fluorescence detection); assay type: biochemical; details: peptide as substrate for octanoylation by hGOAT
T1 construct: His10 (C); made in house; host or cells: Sf9 insect cells (baculovirus), membranes
T1 sequence (Q96T53 1-435): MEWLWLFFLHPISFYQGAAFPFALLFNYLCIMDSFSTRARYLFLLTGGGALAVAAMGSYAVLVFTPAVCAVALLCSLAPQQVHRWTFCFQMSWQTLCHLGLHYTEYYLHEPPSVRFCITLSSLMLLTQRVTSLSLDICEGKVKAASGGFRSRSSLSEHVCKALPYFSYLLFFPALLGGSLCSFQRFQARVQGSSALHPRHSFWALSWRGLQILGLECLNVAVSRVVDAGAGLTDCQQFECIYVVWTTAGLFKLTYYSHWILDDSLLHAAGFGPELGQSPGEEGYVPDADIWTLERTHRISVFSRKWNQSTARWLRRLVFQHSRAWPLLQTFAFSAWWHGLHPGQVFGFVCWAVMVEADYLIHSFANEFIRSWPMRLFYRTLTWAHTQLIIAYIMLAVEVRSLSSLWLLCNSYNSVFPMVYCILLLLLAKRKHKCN
Method: With the peptide substrates, the addition of the hydrophobic octanoyl group upon serine acylation at position 3 leads to an increase in retention time in reverse-phase (RP) HPLC. The panel of fluorescent ghrelin peptide substrates was assayed for activity with hGOAT using HPLC coupled with fluorescence detection of the fluorescently labeled peptides. All reactions with hGOAT-His10 membranes were performed in parallel with mock membranes to account for nonspecific peptide modifications.
(§1) An assay for human ghrelin O-acyltransferase activity was performed using hGOAT expressed from insect (Sf9) cells using standard baculoviral methods and a fluorescent 6-mer peptide synthesized by a single step reaction followed by high performance liquid chromatography (HPLC) purification. The assay was performed at room temperature using hGOAT membrane protein, octanoyl-CoA, a fluorescent ghrelin peptide, a buffer, and a detergent. Activity may be measure by detecting the presence of any octanoylation of the ghrelin peptide. For example, the presence of octanoylated ghrelin peptide may be confirmed by HPLC or by using a fluorescent system whose fluorescence will increase as a result of octanoylation of the ghrelin peptide.

mouse isoform of GOAT = biological target: T2, mouse isoform of GOAT (Mus musculus, UniProt P0C7A3); assay: cell-based inhibition of ghrelin octanoylation, acyl ghrelin ELISA in GOAT/preproghrelin transfected HEK293FT cells; details: stably transfected HEK293FT cells, 24 hours incubation, read-out: cellular IC50, reduction of acyl ghrelin concentrations
T2 construct: expressed in transfected cells; host or cells: HEK293FT, stably transfected with the phPPG-mGOAT plasmid (gift from Dr. Jef Boeke's laboratory)
T2 sequence (P0C7A3 1-435): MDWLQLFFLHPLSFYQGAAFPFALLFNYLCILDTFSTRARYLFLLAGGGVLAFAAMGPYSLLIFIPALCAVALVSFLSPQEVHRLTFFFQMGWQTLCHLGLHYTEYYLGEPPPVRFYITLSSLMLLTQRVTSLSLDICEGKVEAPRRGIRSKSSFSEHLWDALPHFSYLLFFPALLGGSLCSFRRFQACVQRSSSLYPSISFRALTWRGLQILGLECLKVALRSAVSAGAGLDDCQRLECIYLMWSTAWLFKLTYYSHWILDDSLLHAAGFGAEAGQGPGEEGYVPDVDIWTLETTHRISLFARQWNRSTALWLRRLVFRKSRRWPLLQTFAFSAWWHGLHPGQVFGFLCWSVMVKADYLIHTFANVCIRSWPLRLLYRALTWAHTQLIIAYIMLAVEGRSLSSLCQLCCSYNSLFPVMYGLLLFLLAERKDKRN
Method: Stably transfected GOAT/Preproghrelin HEK 293FT cells were generated using the phPPG-mGOAT plasmid (a gift from Dr. Jef Boeke's laboratory) containing human preproghrelin (hPPG) and mouse ghrelin O-acyltransferase (mGOAT) connected by an intervening encephalomyocarditis virus internal ribosome entry site (ECMV-IRES) under puromycin selection as previously described. Cells were transfected using Lipofectamine 2000 (Invitrogen) at a 2 μL to 1 μg DNA ratio in 10 cm tissue culture-treated dishes according to manufacturer's protocol. The 293FT-hPPG-mGOAT cells were cultured in DMEM medium (Corning) supplemented with 10% inactivated fetal bovine serum, 1% penicillin/streptomycin, 1 ug/mL puromycin, and 0.01% octanoic acid and routinely passaged 2-3 times per week. A clonal line was chosen through serial dilution into a 96-well plate.
Cell density and number were optimized for detection of acyl ghrelin via ELISA (EMD Millipore Corp). 293FT-hPPG-mGOAT clonal cells were plated in the late afternoon in 24-plates at 2×10^5 cells/well. Cells were incubated overnight at 37° C., 5% CO2 and treated the next morning with inhibitors or vehicle (DMSO) in triplicate. Cells were treated for 24 hours and harvested after medium aspiration using 40 μL/well trypsin-EDTA (0.25%, Corning) containing 5 μM methoxy arachidonyl flourophosphonate (MAFP). […]

hGOAT [2] = biological target: T1, hGOAT; assay: in vitro hGOAT activity assay (inhibition of ghrelin peptide octanoylation, HPLC/fluorescence); assay type: biochemical; details: for IC50: hGOAT membrane fraction from Sf9 cells, in vitro octanoylation assay
Method: as §1
A library of potential inhibitors was screened using the assay of the present invention. More particularly, membrane fractions from Sf9 cells expressing hGOAT were thawed on ice and homogenized by passing through an 18-gauge needle ten times. Membrane fraction containing ˜50-100 μg membrane protein (determined by Bradford assay) was preincubated for 30 minutes at room temperature with 1 μM MAFP, 500 μM octanoyl CoA, 50 mM HEPES (pH=7.0), and 1 μl Diversity Set compound dissolved in DMSO for a final inhibitor concentration of either 10 or 100 μM for primary screening. Reactions were initiated with the addition of 1.5 μM fluorescent peptide substrate, incubated at room temperature in the dark for 3 hours, then stopped with 50 μl 20% acetic acid in isopropanol. The solutions were clarified by protein precipitation with 16.7 μl 20% trichloroacetic acid, followed by centrifugation (1,000×g, 1 m). The resulting supernatant was analyzed by reverse phase HPLC.
Reactions followed the above procedure, and included inhibitor concentrations of 1, 5, 10, 50, or 100 μM, as well as a DMSO-only vehicle control. Compounds determined to act as hGOAT inhibitors are seen in FIGS. 4 through 6.

1-Dansyl: fluorescent ghrelin mimic peptide substrate, Dansyl-GSSFLS (SEQ. ID No. 2) (ends and bridges not checked)
Active with hGOAT? (hGOAT [1]): not modified by hGOAT and No

CCNC(=O)[C@]12CCC(C)(C)C[C@H]1[C@H]1C(=O)C=C3[C@@]4(C)C=C(C#N)C(=O)C(C)(C)[C@@H]4CC[C@@]3(C)[C@]1(C)CC2 [CDDO-EA]
IC50 (mouse isoform of GOAT): 0.32 ± 0.15 µM
IC50 (hGOAT [2]): 8 ± 4 µM

CC1(C)CC[C@]2(C(=O)n3ccnc3)CC[C@]3(C)[C@H](C(=O)C=C4[C@@]5(C)C=C(C#N)C(=O)C(C)(C)[C@@H]5CC[C@]43C)[C@@H]2C1 [CDDO-Im, 1[2-cyano-3,12-dioxooleana-1,9-dien-28-oyl]imidazole]
IC50 (hGOAT [2]): 38 ± 6 µM

COC(=O)[C@]12CCC(C)(C)C[C@H]1[C@H]1C(=O)C=C3[C@@]4(C)C=C(C#N)C(=O)C(C)(C)[C@@H]4CC[C@@]3(C)[C@]1(C)CC2 [CDDO-Me, methyl 2-cyano-3,12-dioxooleana-1,9(11)dien-28-oate]
IC50 (mouse isoform of GOAT): 0.035 ± 0.01 µM
inhibitory activity against hGOAT-catalyzed ghrelin octanoylation (in words) (hGOAT [2]; in vitro hGOAT activity assay): exhibits inhibitory activity against hGOAT

AcDan-2: acrylodan-labeled ghrelin mimic peptide substrate, GCAcDanSFLS (SEQ. ID No. 3) (GC(acrylodan)SFLS; ends and bridges not checked)
Active with hGOAT? (hGOAT [1]): not modified by hGOAT and No

AcDan-5: acrylodan-labeled ghrelin mimic peptide substrate, GSSFCAcDanS (SEQ. ID No. 4) (GSSFC(acrylodan)S; ends and bridges not checked)
Active with hGOAT? (hGOAT [1]): yielded the octanoylated peptide and Yes

AcDan-6: acrylodan-labeled ghrelin mimic peptide substrate, GSSFLCAcDan (SEQ. ID No. 5) (GSSFLC(acrylodan)-NH2; ends and bridges not checked)
Active with hGOAT? (hGOAT [1]): yielded the octanoylated peptide and Yes
